Reference: patent publication US20100297112A1, “COMBINATIONS COMPRISING DMXAA FOR THE TREATMENT OF CANCER” (Antisoma Research Limited, priority 2005, published 2010)
Read-outs that look alike come from different tables or passages of the source.

Key:
[1] = test system: A549 (lung carcinoma) xenografts; experiment: A549 xenograft study with paclitaxel triple combination (Example 2); type: in vivo, mice; conditions: for Drug deaths: Paclitaxel 5, Avastin 5, DMXAA 21 mg/kg by injection; for Regression Duration: days tumour volume less than original treatment volume; for Tumour Growth Delay: treated versus control tumours to quadruple in volume (control 25 days); for Median VQT: tumour volume quadrupling time; for Response CR (Complete Response): undetectable tumour over two weeks; for Response PR (Partial Response): ≧50% reduction in tumour size sustained over two weeks; for Response PD (Progressive Disease): ≧50% increase in tumour size
From the text: The experimental set-up of this example with respect to the xenografts, mice and cell line is as described in Example 1 above.

[2] = test system: HT29 (colorectal) xenografts; conditions: for Regression Duration: days tumour volume less than original treatment volume; for Tumour Growth Delay: treated versus control tumours to quadruple in volume (control 17 days); for Median VQT: tumour volume quadrupling time; for Response CR (Complete Response): undetectable tumour over two weeks; for Response PR (Partial Response): ≧50% reduction in tumour size sustained over two weeks
Method: (§1) Xenografts for human lung and colorectal cancers are set-up in groups of nude, athymic mice. The cell lines selected are HT29 (ATCC number HTB-38), a colorectal adenocarcinoma, and A549 (ATCC number CCL-185), a lung carcinoma.
(§2) For this study, DMXAA is given twice in each of Weeks 1 and 4 of the study.
(§3) Xenografts are measured two or three times per week and their absolute volume recorded; xenograft tumour volume relative to that recorded on Day 0 (V0) is then calculated. The time taken to reach a relative tumour volume of 3× V0 is used as a surrogate marker for survival.

[3] = test system: A549 (lung carcinoma) xenografts; conditions: for Regression Duration: Example 1, days tumour volume less than original treatment volume; for Tumour Growth Delay: Example 1, treated versus control tumours to quadruple in volume (control 25 days); for Median VQT: Example 1, tumour volume quadrupling time; for Response CR (Complete Response): Example 1, undetectable tumour over two weeks; for Response PR (Partial Response): Example 1, ≧50% reduction in tumour size sustained over two weeks
Method: as §1, §2, §3

[4] = cited from earlier work
human tumours = conditions: phase I, monotherapy, cited from earlier work
[5] = diclofenac 100 mg/kg i.p., cited from earlier work

Compound	TTP (median time to disease progression) [1]	Drug deaths [1]	Regression Duration [1]	Tumour Growth Delay [1]	Median VQT [1]	Response CR (Complete Response) [1]	Response PR (Partial Response) [1]	Regression Duration [2]	Tumour Growth Delay [2]	Median VQT [2]	Response CR (Complete Response) [2]	Response PR (Partial Response) [2]	TTP (median time to disease progression) ([3]; Example 1)	Regression Duration [3]	Tumour Growth Delay [3]	Median VQT [3]	Response CR (Complete Response) [3]	Response PR (Partial Response) [3]	Response SD (Stable Disease) [1]	Response PD (Progressive Disease) [1]	further results
Avastin ™: humanised monoclonal antibody that binds to vascular endothelial growth factor (VEGF)	7 days	0/11	0 days	>17 days	>42 days	0	0	0 days	17 days	34 days	0	0	8 days	0 days	42 days	67 days	0	1	–	–	–
CC(=O)O[C@H]1C(=O)[C@@]2(C)[C@H]([C@H](OC(=O)c3ccccc3)[C@]3(O)C[C@H](OC(=O)[C@H](O)[C@@H](NC(=O)c4ccccc4)c4ccccc4)C(C)=C1C3(C)C)[C@]1(OC(C)=O)CO[C@@H]1C[C@@H]2O [Paclitaxel, paclitaxel]	7 days	0/11	0 days	3 days	28 days	0	0	–	–	–	–	–	–	–	–	–	–	–	0	11	–
O=C1CCC(N2C(=O)c3ccccc3C2=O)C(=O)N1 (centres unmarked) [Thalidomide, thalidomide]	–	–	–	–	–	–	–	–	–	–	–	–	–	–	–	–	–	–	–	–	increase of the AUC of DMXAA ([4]; in plasma, liver and spleen): 1.8 times; increase of the AUC of DMXAA ([4]; in tumour): three
Cc1ccc2c(=O)c3cccc(CC(=O)O)c3oc2c1C [DMXAA, 5,6-dimethylxanthenone-4-acetic acid]	7 days	4/11	0 days	>21 days	>46 days	0	0	10 days	29 days	46 days	0	1	14 days	0 days	32 days	57 days	0	0	0	7	tumour blood flow (dynamic MRI) (human tumours; well-tolerated doses): significant reduction in tumour blood flow; tumour responses (human tumours): very few tumour responses; Response SD (Stable Disease) [2]: 0; TTP (median time to disease progression) [2]: 16 days; Response PD (Progressive Disease) ([2]; ≧50% increase in tumour size): 5; Response SD (Stable Disease) ([3]; Example 1): 0; Response PD (Progressive Disease) ([3]; Example 1, ≧50% increase in tumour size): 11
O=C(O)Cc1ccccc1Nc1c(Cl)cccc1Cl [diclofenac]	–	–	–	–	–	–	–	–	–	–	–	–	–	–	–	–	–	–	–	–	increase in the plasma DMXAA AUC ([5]; female mice): 31%; increase in T1/2 of DMXAA ([5]; male and female mice, P<0.05): threefold; increase in the plasma DMXAA AUC ([5]; male mice): 24%
